Square brackets hold non-standard residues; d marks the D form.
B1: human β2-GPI: commercially-available human β2-GPI (SEQ ID NO. 15), whole molecule (protein, listed as Homo sapiens)
chain: MISPVLILFSSFLCHVAIAGRTCPKPDDLPFSTVVPLKTFYEPGEEITYSCKPGYVSRGGMRKFICPLTGLWPINTLKCTPRVCPFAGILENGAVRYTTFEYPNTISFSCNTGFYLNGADSAKCTEEGKWSPELPVCAPIICPPPSIPTFATLRVYKPSAGNNSLYRDTAVFECLPQHAMFGNDTITCTTHGNWTKLPECREVKCPFPSRPDNGFVNYPAKPTLYYKDKATFGCHDGYSLDGPEEIECTKLGNWSAMPSCKASCKVPVKKATVVYQGERVKIQEKFKNGMLHGDKVSFFCKNKEKKCSYTEDAQCIDGTIEVPKCFKEHSSLAFWKTDASDVKPC

Assays:
[1] = system: PGE2; experiment: Intestinal IR, ex vivo PGE2 generation; format: in vivo, mouse; conditions: C57Bl/6 mice, peptide 40 μM prior to IR
Procedure: C57Bl/6 and Rag-1^−/− mice were subjected to ischemia followed by reperfusion similar to previously described studies (Moses, T. et al., J. Leukoc. Biol. 86:971-980 (2009)). Briefly, ketamine (16 mg/kg) and xylazine (80 mg/kg) were used to anesthetize the mice. Buprenorphine (0.06 mg/kg) was then administered for pain. A midline laparotomy was performed to expose the abdominal cavity of the mice, which were then allowed to equilibrate for 30 min. Body temperature was maintained at 37° C. using a water-circulating heat pad. Placing a warm, saline moistened piece of gauze over the abdominal cavity prevented peritoneal desiccation. […] Ischemia was noted by the intestine changing from a pink color to a gray color. After 30 min of ischemia, the clamp was removed and the intestines were allowed to reperfuse for 5, 10, 15, or 120 min. […] Peptides 296, 305, and 296Cys to Ser were dissolved in N. Saline (0.9% NaCl) and injected i.v. in 100-μL volumes. Peptides 100 and 181 were dissolved in DMSO prior to diluting 1/100 in N. Saline. Additional mice received peptides prior to Sham treatment.
(§1) Ex vivo generation of eicosanoids by mid-jejunal tissue was determined. Immediately after collection, a 2-cm intestinal section from each mouse was minced, washed, resuspended in 37° C. oxygenated Tyrode's buffer (Sigma-Aldrich; St. Louis, Mo.), incubated at 37° C. for 20 minutes, and the supernatant collected. PGE2 and LTB4 concentrations were determined using enzyme immunoassay kits (Cayman Chemical; Ann Arbor, Mich.). IL-6 and IL-12 concentrations were determined using a Milliplex MAP immunoassay kit (Millipore) and read on a Milliplex Analyzer (Millipore). All eicosanoid and cytokine concentrations were standardized to the total tissue protein content.
(§2) Total peroxidase, LTB4, PGE2, IL-6, IL-12p40, and IL-12p70 concentrations were determined using the procedures described in Example 1.

[2] = system: C57Bl/6 mice; experiment: Intestinal ischemia/reperfusion, mucosal injury score; format: in vivo, mouse; conditions: C57Bl/6 mice, peptide 40 μM i.v. 5 min prior to ischemia, 2 hours reperfusion
Procedure: (§3) C57Bl/6 and Rag-1^−/− mice were subjected to ischemia followed by reperfusion similar to previously described studies (Moses, T. et al., J. Leukoc. Biol. 86:971-980 (2009)). Briefly, ketamine (16 mg/kg) and xylazine (80 mg/kg) were used to anesthetize the mice. Buprenorphine (0.06 mg/kg) was then administered for pain. A midline laparotomy was performed to expose the abdominal cavity of the mice, which were then allowed to equilibrate for 30 min. Body temperature was maintained at 37° C. using a water-circulating heat pad. Placing a warm, saline moistened piece of gauze over the abdominal cavity prevented peritoneal desiccation. […] Ischemia was noted by the intestine changing from a pink color to a gray color. After 30 min of ischemia, the clamp was removed and the intestines were allowed to reperfuse for 5, 10, 15, or 120 min. […] Mice treated with the various β2-GPI peptides underwent the same procedure with i.v. administration of the peptides (40 μM) 5 min prior to artery occlusion. Peptides 296, 305, and 296Cys to Ser were dissolved in N. Saline (0.9% NaCl) and injected i.v. in 100-μL volumes. Peptides 100 and 181 were dissolved in DMSO prior to diluting 1/100 in N. Saline. Additional mice received peptides prior to Sham treatment.
Immediately after euthanasia, a 2-cm mid jejunum tissue section was immediately fixed in 10% buffered formalin, embedded in paraffin, and 8 μm sections were cut transversely and hematoxylin and eosin (H&E) stained. Mucosal injury was graded on a six-tiered scale, as described previously (Fleming, S. D. et al., J. Immunol. 169:2126-2133 (2002)). Briefly, the average damage score of the intestinal section (75-150 villi) was determined after grading each villus. […] Photomicrographs were obtained from H&E stained slides using a 20×, 0.5 Plan Fluor objective on a Nikon 80i microscope and images acquired at room temperature using a Nikon DS-5M camera with DS-L2 software.
Ischemia/reperfusion was performed on ketamine/xylazine anesthetized mice as described in Example 1 above. After 2 hours of reperfusion, the mice were euthanized and sera, liver, spleen, and 2 cm sections of the small intestine, approximately 10 cm distal to the gastroduodenal junction, were collected for histological and other analyses. Mice treated with the various β2-GPI peptides underwent the same procedure with i.v. administration of the peptides. Most studies assumed 2 mL total blood volume in a mouse and administered peptides to a final concentration of 40 μM at 5 min prior to ischemia. Dose response studies administered 1-40 μM peptide at 5 min prior to ischemia and time course studies administered 40 μM peptide at 5 min prior to ischemia, and at 15-, 30- or 60-min post-ischemia (i.e., during reperfusion).
After euthanasia, tissue sections were fixed and stained following the procedures outlined in Example 1. Mucosal injury (SMI) was also graded on a six-tiered scale, as described in Example 1.

[3] = system: C3; experiment: Intestinal IR, C3 deposition immunohistochemistry; format: in vivo, mouse; conditions: C57Bl/6 mice, peptide infused prior to IR
Procedure: as §3
After euthanasia, an additional 2-cm intestinal section from each mouse was immediately snap frozen in O.C.T. freezing medium and 8 μm sections were placed on slides for immunohistochemistry. The C3 deposition and F4/80 expression on the tissue sections were detected by staining with a purified rat-anti-mouse C3 (Hycult Biotechnologies; Plymouth Meeting, Pa.) or F4/80 (eBioscience; San Diego, Calif.) antibody followed by a Texas-red conjugated donkey-anti-rat IgG secondary antibody (Jackson Immunoresearch). CD31 (PECAM-1) and CD106 (VCAM-1) were detected by FITC conjugated rat anti-mouse CD31 or CD106 (Biolegend; San Diego, Calif.) antibodies. Each experiment contained serial sections stained with the appropriate isotype control antibodies. All slides were mounted with ProLong Gold (Invitrogen). Images were obtained at room temperature using a Nikon Eclipse 80i microscope equipped with a CoolSnap CF camera (Photometrics) and analyzed using Metavue software (Molecular Devices). The fluorescence was semi-quantitated using Image J software (NIH) using the fluorescent area fraction after setting threshold for each experiment. The average of the isotype control was subtracted from each photo.

[4] = system: LTB4; experiment: Intestinal IR, ex vivo LTB4 generation; format: in vivo, mouse; conditions: C57Bl/6 mice, peptide 40 μM prior to IR
Procedure: as §3, §1, §2

[5] = system: thioglycollate-elicited macrophages, nitric oxide; experiment: β2-GPI stimulated macrophage nitric oxide production; format: cell-based; conditions: mouse β2-GPI 10 μg/mL, peptide 40 μM, 18 hours
Procedure: C57Bl/6 mice were injected i.p. with 1 mL thioglycollate (4%) 4 days prior to peritoneal lavage. Peritoneal exudate macrophages or the B cell line, LK35.2, were seeded at 2×10^6 cells/mL in 24-well or 96-well plates. After macrophage adherence, both cell types were treated with mouse β2-GPI (10 μg/mL) with or without peptide (40 μM). Additional cells were unstimulated as a negative control or stimulated with 10 μg/mL LPS (E. coli 055B5) as a positive control. Supernatants were collected 18-20 hours after stimulation and analyzed for nitrite by Griess reagent (Hoffman & Fleming, Cell Biochem. Funct. 28:686-694 (2010)) or IL-6 by Milliplex MAP kit (Millipore) following the manufacturer's instructions using a Luminex 200 with xPONENT 3.1 and Analyst software (Millipore).

[6] = system: C57Bl/6 mice; experiment: Intestinal ischemia/reperfusion, mucosal injury score; format: in vivo, mouse; conditions: Example 3, human β2-GPI in N. saline at 0.5-μg, 1-μg and 5-μg

Row | Molecule | IR-induced intestinal PGE2 production [1] | IR-induced intestinal mucosal damage (injury score) [2] | C3 deposition / complement activation after IR [3] | IR-induced intestinal LTB4 production [4] | β2-GPI-induced nitric oxide production [5] | IR-induced intestinal injury [6]
1 | H-SKNKEKK-NH2 [peptide p7, 11] | returned PGE2 concentrations to those found in Sham treated animals | attenuate actual epithelial injury more effectively | – | – | – | –
2 | H-SHAEVTYSS-OH (H-[dS][dH][dA][dE][dV][dT][dY][dS][dS]-OH; also: retro-inverso) [peptide Retro-inverso D-p9, 13] | attenuated | attenuated | few to no C3 deposits | attenuated | – | –
3 | H-GNDTVMCTEQQN-NH2 [peptide 181, 17, reference compound] | – | IR-induced intestinal damage similar to untreated mice | – | – | – | –
4 | H-SSYTVEAHS-OH (H-[dS][dS][dY][dT][dV][dE][dA][dH][dS]-OH; SMILES CC(C)[C@@H](NC(=O)[C@H](NC(=O)[C@@H](Cc1ccc(O)cc1)NC(=O)[C@@H](CO)NC(=O)[C@H](N)CO)[C@H](C)O)C(=O)N[C@H](CCC(=O)O)C(=O)N[C@H](C)C(=O)N[C@H](Cc1c[nH]cn1)C(=O)N[C@H](CO)C(=O)O) [peptide D-p9, p9 synthesized with D-amino acids] | attenuated | attenuated | – | did not | – | –
5 | H-SSYTVEAHS-NH2 [peptide p9, 12] | attenuated | attenuated | significantly less deposition | attenuated | significantly attenuated | –
6 | B1 | – | – | – | – | – | effective at attenuating

From patent US8895502B2, “β2-glycoprotein I peptide inhibitors” (Kansas State University Research Foundation, priority 2010, dated 2014)
